Where two headings read alike, the source gives them in different places.
Legend:
[1] = test system: liver fibrosis in two rat models; conditions: cited from earlier work
[2] = test system: ZSF1 rat model of type 2 diabetes mellitus (T2DM)-induced nephropathy; conditions: cited from earlier work
[3] = in vivo; cited from earlier work
[4] = test system: patients with ADHF; conditions: intravenously administered; cited from earlier work
[5] = test system: intraocular pressure; conditions: animal models; cited from earlier work
[6] = test system: sGC; conditions: cited from earlier work
[7] = humans; cited from earlier work
[8] = preclinical species; cited from earlier work
[9] = in vivo; cited from earlier work; remark: listed apart in the source
[10] = test system: patient with ME/CFS; conditions: single patient, history of Giardia Lamblia infection, ME/CFS for 10 years; cited from earlier work
[11] = test system: subjects with heart failure with reduced ejection fraction (HfrEF); conditions: initial dose 2.5 mg, titrated to 10 mg at two-week intervals; cited from earlier work
[12] = test system: endothelial dysfunction (ED) models; conditions: preclinical ED models and HF patients; cited from earlier work
[13] = test system: NT-proBNP; conditions: cited from earlier work
[14] = test system: post-infectious ME/CFS patients
[15] = test system: healthy subjects; conditions: cited from earlier work
[16] = test system: platelet aggregation; conditions: via stimulation of cGMP synthesis; cited from earlier work
[17] = test system: isolated sGC; conditions: cited from earlier work
[18] = Vericiguat Pool (2.5 mg, 2.5 to 5 mg, 2.5 to 10 mg groups)

For O=C(O)CCCCN(CCc1cc(F)ccc1OCc1ccc(-c2ccc(C(F)(F)F)cc2)cc1)Cc1ccc(C(=O)O)cc1 [BAY 60-2770, 4-({(4-carboxy-butyl)[2-(5-fluoro-2-{[4′-(trifluoromethyl)biphenyl-4-yl]methoxy}phenyl)ethyl]amino}methyl)benzoic acid], the Liver fibrosis [1] is listed as “attenuates liver fibrosis”.
In the case of Cc1ccc(OCc2ccc(C(=O)N3CCCCC3)cc2C)c(-c2csc(C3CC4CCC(C3)C4C(=O)O)n2)c1 (stereo not shown) [BI 703704], the In vivo activity [2] is listed as “displaying in vivo activity”.
In the case of Fc1ccccc1Cc1nc(-c2nc(C(F)(F)F)n[nH]2)cn2ccnc12 [CY6463], the “Crossing of the blood-brain barrier” value [3] is given as “readily crosses the blood-brain barrier”.
For O=C(O)CCCCN(CCc1ccccc1OCc1ccc(CCc2ccccc2)cc1)Cc1ccc(C(=O)O)cc1 [Cinaciguat], the Hemodynamic effect [4] is given as “potent unloading of the heart with arterial vasodilation”.
For Cc1cc(C2CCN(C(=O)C3CC3)CC2)ccc1NC1CCc2cccc(-c3cccc(-n4ncc(C(=O)O)c4C)n3)c21 (stereo not shown) [MGV354], the Intraocular pressure [5] is listed as “significantly lowered intraocular pressure”.
For [N]=O [NO, nitric oxide], the “Increase of sGC activity” value [6] is given as “about 200 fold”.
In the case of OC(CNc1nc(-c2cc(-c3ccon3)n(Cc3ccccc3F)n2)ncc1F)(C(F)(F)F)C(F)(F)F [Praliciguat], the Pharmacokinetic half-life [7] is given as “consistent with QD dosing”, the Clearance route [8] is given as “mainly hepatic clearance” and the Half-life [8] is given as “long half-life”. For the same molecule, the Tissue distribution [8] was “extensive tissue distribution”.
In the case of COC(=O)N(C)c1c(N)nc(-c2nn(Cc3ccccc3F)c3ncccc23)nc1N [Riociguat], the “Risk of anemia as side effect” value [9] is given as 7.8% and the “Symptoms of ME/CFS” value [10] is given as “some improvement in symptoms”.
For COC(=O)Nc1c(N)nc(-c2nn(Cc3ccccc3F)c3ncc(F)cc23)nc1N [Vericiguat], the “Efficacy in terms of cardiovascular mortality and HF hospitalization” value [11] is listed as “superior to placebo”, the Vascular function [12] is listed as “restores vascular function” and the “Difference of Means vs Placebo - log scale, change in log transformed NT-proBNP from baseline to week 12” value ([13]; 1.25 mg) is listed as 0.0151 log [pg/mL]. For the same molecule, the “Ratio of Geometric Means vs Placebo - Back Transformed, NT-proBNP baseline to week 12” value (“Ratio of Geometric Means vs Placebo” for short) ([13]; 1.25 mg) was 1.015, the “Reduction in NT-proBNP at 12 weeks compared to placebo” value ([13]; 2.5 mg titrated at two-week intervals to 10 mg, p=0.0483) was “greatest reduction” and the “Difference of Means vs Placebo - log scale, change in log transformed NT-proBNP from baseline to week 12” value ([13]; 2.5 mg) was −0.0396 log [pg/mL]. For the same molecule, the “Ratio of Geometric Means vs Placebo” value ([13]; 2.5 mg) was 0.961, the “Difference of Means vs Placebo - log scale, change in log transformed NT-proBNP from baseline to week 12” value ([13]; 2.5 to 5 mg) was −0.0731 log [pg/mL] and the “Ratio of Geometric Means vs Placebo” value ([13]; 2.5 to 5 mg) was 0.930. The “Difference of Means vs Placebo - log scale, change in log transformed NT-proBNP from baseline to week 12” value ([13]; 2.5 to 10 mg) was −0.2494 log [pg/mL], the “Ratio of Geometric Means vs Placebo” value ([13]; 2.5 to 10 mg) was 0.779 and the “Difference of Means vs Placebo - log scale, change in log transformed NT-proBNP from baseline to week 12” value [13, 18] was −0.1220 log [pg/mL]. For the same molecule, the “Ratio of Geometric Means vs Placebo” value [13, 18] was 0.885, the “Secondary analysis: reduction of NT-proBNP at 12 weeks” value ([13]; across vericiguat doses) was “dose-response relationship” and the “Primary efficacy endpoint, change from baseline in log-transformed NT-proBNP vs placebo” value ([13]; pooled vericiguat group, 12 weeks) was “not significantly different”. The Cognitive function ([14]; 1st patient) was “improved”, the “Sensitivity to light and noise” value ([14]; 1st patient) was “less sensitivity to light and noise” and the Fatigue ([14]; 1st patient (ME/CFS triggered by COVID), 5 mg) was “improved”. The “Activity without getting PEM” value ([14]; 1st patient, 5 mg) was “much more activity was possible without getting PEM”, the “Quality of life, according to the patient” value ([14]; 2nd patient) was “significantly improved” and the “Effect of treatment (mainly cognitive)” value ([14]; 2nd patient (postinfectious ME/CFS, Bell of 20), 2.5 mg) was “only a minor positive effect”. The Cognitive ability ([14]; 2nd patient, 5 mg, over a period of a few weeks) was “increase in cognitive ability”, the “Feeling of being sick” value ([14]; 2nd patient, compared to prior to treatment) was “reduced” and the Headaches ([14]; 2nd patient, before medication about 3 days a week) was “almost completely disappeared”. For the same molecule, the “Ability for cognitive work without triggering PEM” value ([14]; 2nd patient, increased from 1 h) was “more than 2 hours”, the Headaches ([14]; 3rd patient) was “disappeared” and the Muscle fasciculation ([14]; 3rd patient) was “decreased”. The Sensitivity to noise ([14]; 3rd patient) was “improved”, the Fatigue ([14]; 3rd patient (ME/CFS triggered by COVID), 2 weeks of 5 mg) was “improved” and the Ability to work ([14]; 3rd patient, increased from 1) was 2 to 3 h. The “Drop in blood pressure” value ([14]; human, in vivo) was “no significant drop in blood pressure”, the “Effect on blood pressure” value ([14]; human, in vivo) was “almost no effect on blood pressure” and the Tolerability ([14]; human, in vivo) was “very good”. The “Risk of anemia as side effect” value [9] was 1.9%, the PK interaction profile ([15]; estimated in in vitro studies, confirmed in healthy subjects) was “low” and the “Severity of most treatment-emergent adverse events” value ([15]; human, in vivo) was “mild-to-moderate severity”. The “Tolerability in clinical studies” value ([15]; human, in vivo) was “well-tolerated”.
In the case of OCc1ccc(-c2nn(Cc3ccccc3)c3ccccc23)o1 [YC-1], the Platelet aggregation [16] is given as “inhibiting platelet aggregation”, the “Effect on sGC when combined with NO-releasing compounds” value [17] is given as “strong synergistic effect” and the “sGC stimulation after oxidation or removal of the prosthetic heme moiety” value [17] is given as “loss of stimulation”.

From patent publication US20250387391A1, “A SOLUBLE GUANYLAT CYCLASE ACTIVATOR FOR TREATING CHRONIC VASCULAR DYSFUNCTION” (Charité - Universitätsmedizin Berlin, priority 2022, published 2025)
